Reference: publication PMC9475448, “What a difference a methylene makes: replacing Glu with Asp or Aad in the Lys-urea-Glu pharmacophore of PSMA-targeting radioligands to reduce kidney and salivary gland uptake” (Theranostics, 2022)

Columns and labels:
[1] = test system: LNCaP tumor and major mouse organs/tissues; test: Radiation dosimetry calculation with OLINDA software from biodistribution data; conditions: 25-g mouse
Description: The biodistribution data (available in the Supplemental Table s 5- 6) were used to determine the kinetics input values required by OLINDA. First, each of the values was decayed to its corresponding time point (the values on the table are shown at injection time). Then the different time-points of the uptake data (%IA/g) for each organ were fitted to both mono- exponential ( ) and bi-exponential ( ) functions using in-house software developed in Python. The best fit was selected based on maximizing the coefficient of determination (R2) of the fit and minimizing the residuals. The areas under the curves were analytically calculated based on the parameters obtained from the best fit of each organ and this provided the kinetic input values required by OLINDA.
In the mouse case, the adrenals, blood, fat, and muscle are not modeled in the phantom. These organs were grouped together and included in what OLINDA calls the remainder of the body .
Lastly, the numbers of decays in the tumors were also calculated based on the biodistribution data of the mice and the values were inputted into the sphere model available in OLINDA.

[2] = test system: LNCaP tumor-bearing mice; test: Longitudinal SPECT/CT imaging of 177Lu-labeled ligands; type: in vivo
Protocol: SPECT/CT imaging experiments were conducted using the MILabs (Utrecht, The Netherlands) U-SPECT-II/CT scanner. Each tumor-bearing mouse (n = 1-2 was injected with ∼37 MBq (50-250 pmol) of ^177Lu-labeled compound through a lateral caudal tail vein. The mice were imaged at 1, 4, 24, 72, and 120 h after injection. At each time point, a 5-min CT scan was conducted first for anatomical reference followed by 2 × 30-min static emission scans acquired in list mode.

[3] = test system: LNCaP tumor-bearing mice; test: Radioligand therapy study in LNCaP tumor-bearing NRG mice; conditions: 37 MBq injected
[4] = test system: LNCaP tumor-bearing mice; test: Ex vivo biodistribution of 177Lu-labeled ligands in LNCaP tumor-bearing NRG mice
[5] = 1 h post-injection, listed as [177Lu]Lu-PSMA-617
[6] = 4 h post-injection, listed as [177Lu]Lu-PSMA-617

## [^177Lu]Lu-PSMA-617
[1]; source organ Brain
  Kinetics value: 6.64E-03 MBq-h/MBq
[1]; source organ Cortical bone
  Kinetics value: 8.28E-03 MBq-h/MBq
[1]; source organ Heart contents
  Kinetics value: 3.28E-03 MBq-h/MBq
[1]; source organ Kidneys
  Kinetics value: 8.23E-01 MBq-h/MBq
[1]; source organ Large intestine
  Kinetics value: 8.80E-03 MBq-h/MBq
[1]; source organ Liver
  Kinetics value: 6.38E-02 MBq-h/MBq
[1]; source organ Lungs
  Kinetics value: 4.85E-03 MBq-h/MBq
[1]; source organ Pancreas
  Kinetics value: 4.76E-03 MBq-h/MBq
[1]; source organ Remainder of the body
  Kinetics value: 1.68E-01 MBq-h/MBq
[1]; source organ Small intestine
  Kinetics value: 2.63E-02 MBq-h/MBq
[1]; source organ Spleen
  Kinetics value: 1.41E-02 MBq-h/MBq
[1]; source organ Stomach
  Kinetics value: 2.34E-04 MBq-h/MBq
[1]; source organ Testes
  Kinetics value: 4.23E-03 MBq-h/MBq
[1]; source organ Thyroid
  Kinetics value: 4.01E-04 MBq-h/MBq
[1]; source organ Urinary bladder contents
  Kinetics value: 8.04E-01 MBq-h/MBq
[2]; mouse, in vivo
  Excretion pathway (SPECT imaging): excreted mainly via the renal pathway
[2]; ~37 MBq injected
  Tumor size change in SPECT/CT images: tumors shrank from Day 1 to Day 5
[3]
  Median survival: 63 days
[4]; 1 h post-injection
  Adrenal glands uptake: 3.025 ± 0.939 %IA/g
  Blood uptake: 0.750 ± 0.119 %IA/g
  Blood:Salivary gland uptake ratio: < 1.0
  Bone uptake: 0.118 ± 0.026 %IA/g
  Brain uptake: 0.028 ± 0.007 %IA/g
  Fat uptake: 0.327 ± 0.069 %IA/g
  Heart uptake: 0.294 ± 0.045 %IA/g
  Intestines uptake: 0.275 ± 0.032 %IA/g
  Kidneys uptake: 79.7±11.7 %IA/g
  Lacrimal glands uptake: 0.068 ± 0.022 %IA/g
  Liver uptake: 0.224 ± 0.030 %IA/g
  Lungs uptake: 1.377 ± 0.152 %IA/g
  Muscle uptake: 0.177 ± 0.032 %IA/g
  Pancreas uptake: 0.387 ± 0.074 %IA/g
  Salivary glands uptake: 1.78±0.38 %IA/g
  Spleen uptake: 3.666 ± 1.342 %IA/g
  Stomach uptake: 0.130 ± 0.054 %IA/g
  Testes uptake: 0.433 ± 0.068 %IA/g
  Thyroid uptake: 0.556 ± 0.073 %IA/g
  Tumor uptake: 16.5±2.46 %IA/g
  Tumor:Blood uptake ratio: 22.5 ± 4.07
  Tumor:Kidney uptake ratio: 0.21 ± 0.04
  Tumor:Muscle uptake ratio: 94.3 ± 12.8
  Tumor:Salivary gland uptake ratio: 9.81 ± 3.33
[4]; [5]
  Blood:Salivary gland uptake ratio: 0.44 ± 0.12
  Kidneys uptake: 79.67 ± 11.68 %IA/g
  Salivary glands uptake: 1.775 ± 0.381 %IA/g
  Tumor uptake: 16.48 ± 2.456 %IA/g
[4]; 4 h post-injection
  Adrenal glands uptake: 0.469 ± 0.527 %IA/g
  Blood uptake: 0.031 ± 0.017 %IA/g
  Blood:Salivary gland uptake ratio: 0.20 ± 0.06
  Bone uptake: 0.017 ± 0.007 %IA/g
  Brain uptake: 0.011 ± 0.001 %IA/g
  Fat uptake: 0.028 ± 0.011 %IA/g
  Heart uptake: 0.026 ± 0.006 %IA/g
  Intestines uptake: 0.135 ± 0.042 %IA/g
  Kidneys uptake: 13.1±9.60 %IA/g
  Lacrimal glands uptake: 0.079 ± 0.056 %IA/g
  Liver uptake: 0.056 ± 0.012 %IA/g
  Lungs uptake: 0.123 ± 0.052 %IA/g
  Muscle uptake: 0.020 ± 0.004 %IA/g
  Pancreas uptake: 0.031 ± 0.012 %IA/g
  Salivary glands uptake: 0.14±0.04 %IA/g
  Spleen uptake: 0.222 ± 0.117 %IA/g
  Stomach uptake: 0.029 ± 0.017 %IA/g
  Testes uptake: 0.055 ± 0.018 %IA/g
  Thyroid uptake: 0.065 ± 0.027 %IA/g
  Tumor uptake: 14.24 ± 1.804 %IA/g
  Tumor:Blood uptake ratio: 593 ± 338
  Tumor:Kidney uptake ratio: 1.58 ± 0.98
  Tumor:Muscle uptake ratio: 748 ± 180
  Tumor:Salivary gland uptake ratio: 105 ± 28.0
[4]; [6]
  Kidneys uptake: 13.06 ± 9.598 %IA/g
  Salivary glands uptake: 0.142 ± 0.039 %IA/g
